How the values were obtained:
P. berghei sporozoites [1] = experiment: Propidium iodide toxicity assay on sporozoites; type: cell-based, Plasmodium berghei; conditions: for toxicity to sporozoites (propidium iodide): ten minutes
Method: When sporozoites were incubated with specific inhibitors, their concentrations were as follows: 10 […] E-64; 1 mM phenylmethylsulfonyl fluoride (PMSF); 0.3 mM aprotinin; 100 mM 3,4 DCl; 75 mM leupeptin; 100 mM TLCK; 1 mM pepstatin; 1 mM 1,10 phenanthroline; 5 mM EDTA; 0.5% sodium azide. To check for toxicity by propidium iodide (PI) staining, P. berghei sporozoites were incubated in the presence or absence of the various protease inhibitors for two hours at 28° C., PI was then added to a final concentration of […] for five minutes at 28° C. The sporozoites were washed and viewed under a fluorescent microscope.
P. berghei sporozoites were incubated with the indicated concentrations of allicin for ten or sixty minutes at 28° C., washed with DMEM, and then incubated with 1 μg/ml propidium iodide for five minutes at 25° C. The number of fluorescent sporozoites in each sample was counted using a Nikon Eclipse E600 microscope. Control samples consisted of sporozoites that were incubated for sixty minutes at 28° C. in DMEM without allicin and sporozoites that were heat killed at 65° C. for ten minutes.

[2] = Brodnitz, M. H., et al.; cited from earlier work
[3] = system: CSP processing in P. falciparum sporozoites; experiment: Pulse-chase metabolic labeling of CSP processing, P. falciparum sporozoites; type: cell-based, Plasmodium falciparum; conditions: ninety minute chase
Method: P. berghei sporozoites were incubated in Dulbecco's Modified Eagle Medium (DMEM; Invitrogen, Carlsbad, Calif.) without cysteine (Cys) and methionine (Met), containing 1% BSA and […] L-[35 S]-Cys/Met (Pro-Mix, Amersham Pharmacia) in a total volume of 200 μl for one hour at 28° C. They were then washed and resuspended in DMEM/BSA containing unlabeled Cys/Met at 28° C. for the indicated time in the presence or absence of the indicated protease inhibitor. Sporozoites were then lysed and CSP was immunoprecipitated and analyzed by autoradiography as outlined below.
For experiments with P. falciparum, a 10% SDS-polyacrylamide gel was used. Gels were fixed in 25% methanol/12% acetic acid, enhanced with Amplify (Amersham Pharmacia) for 30 minutes, dried, and exposed to film.
P. berghei sporozoites were metabolically labeled in DMEM without Cys/Met, 1% BSA and 400 μCi/ml L-[^355]-Cys/Met for 1 hour at 28° C. and then kept on ice or chased at 28° C. for the indicated times. Details of this procedure are outlined in (Coppi et al., 2005). To investigate the kinetics of processing in the presence of hepatocytes, sporozoites were labeled as above, chased at 28° C. for 1 hour and then centrifuged (300×g) onto glass coverslips with Hepa 1-6 cells and incubated at 37° C. for 5, 15 or 30 minutes. […]

P. berghei sporozoites [4] = conditions: in the presence of E-64
Method: Hepa 1-6 cells were plated in 96-well tissue culture-treated plates, allowed to grow until semi-confluent, washed with DMEM without phenol red, loaded with 10 μM calcein green AM for 1 hour at 37° C. and washed 3 times. 5×10^5 sporozoites in culture medium were centrifuged onto the calcein-loaded cells, incubated for 1 hour at 37° C. and supernatants containing the released calcein were transferred to a ThermoElectron Microfluor 96-well plate. Fluorescence was read in a Labsystems Fluoroscan II using excitation and emission wavelengths of 485 nm and 538 nm, respectively. Further details are outlined in (Coppi et al., 2007).

P. yoelii sporozoites [5] = conditions: sporozoites preincubated with E-64
P. berghei sporozoites [6] = system: P. berghei sporozoites
Method: Panel A illustrates P. berghei sporozoites were metabolically labeled with [35 S]-Cys/Met and then washed and kept on ice (lane 1) or chased with cold medium for two hours at 28° C., in the absence (lane 2) or presence of the indicated protease inhibitors (lanes 3-11). After the chase, sporozoites were lysed, CSP was immunoprecipitated and analyzed by SDS-PAGE and autoradiography (abbreviations: Apr, aprotinin; DCl, 3,4 DCl; Leu, leupeptin; Pep, pepstatin; Phen, 1,10 phenanthroline). Panel B illustrates P. falciparum sporozoites were metabolically labeled as above and then kept on ice (lane 1) or chased with cold medium for ninety minutes in the absence (lane 2) or presence of E-64 (lane 3). Samples were processed as outlined above. Panel C illustrates P. berghei sporozoites were preincubated with buffer (lane 1) or the indicated compounds, washed, metabolically labeled with [^35S]-Cys/Met, lysed, and CSP was immunoprecipitated and analyzed by SDS-PAGE and autoradiography. (Abbreviations: Az=sodium azide).
In addition to the above, pulse-chase metabolic labeling experiments were performed with sporozoites of the human malaria parasite, Plasmodium falciparum. […] In order to insure that the protease inhibitors were not toxic to sporozoites, sporozoites were incubated with the various inhibitors for two hours and then propidium iodide (hereinafter, “PI”) was added, which is a fluorescent molecule that enters permeabilized cells.

P. yoelii sporozoites [7] = conditions: preincubated with 10 mM E-64
Method: Lab-Tek glass slides (model 177402, Nalgene Nunc Corp., Naperville, Il.) were coated with […] of mAb 3D11 (P. berghei) or mAbs 2F6 and NYS1 (P. yoelii) and sporozoites pre-incubated with DMEM/BSA alone or supplemented with 10 mM E-64 or CD for two hours at 28° C. were added in the continued presence of the inhibitor for one hour at 37° C. in a humidified chamber with 5% CO2. The slides were then fixed with 4% paraformaldehyde, incubated with 1:100 dilution of either biotinylated mAb 3D11 (P. berghei) or biotinylated mAb NYS1 (P. yoelii) followed by streptavidin-FITC.

In the case of `C=CCS[S+]([O-])CC=C` (centres unmarked) [allicin], the “number of fluorescent (propidium iodide) sporozoites” value (P. berghei sporozoites [1]; 50 μM allicin 10 minutes, then 4.2 μM for 50 minutes) is reported as “did not increase the number of fluorescent sporozoites compared to the untreated control”, the “increase in number of sporozoites taking up propidium iodide” value (P. berghei sporozoites [1]; 50 μM allicin, one hour) is reported as 1.5 fold and the “toxicity to sporozoites (propidium iodide)” value (P. berghei sporozoites [1]; 50 μM allicin) is reported as “did not kill sporozoites”. The “percentage of sporozoites that took up propidium iodide” value (P. berghei sporozoites [1]; 1 or 10 μM allicin for up to one hour) was “no different from the untreated control”, the “toxicity to sporozoites (propidium iodide)” value (P. berghei sporozoites [1]; allicin concentrations higher than 50 μM) was “toxic to the sporozoites even after only ten minutes of exposure” and the stability in vivo [2] was “rapid decomposition in vivo”.
In the case of `CC(C)C[C@H](NC(=O)[C@H]1O[C@@H]1C(=O)O)C(=O)NCCCCN=C(N)N` (relative stereo) [E-64, L-trans-epoxysuccinyl-leucylamide-[4-guanido]-butane], the “effect on CSP processing” value [3] is reported as “inhibited CSP processing”, the “increase in migratory activity” value (P. berghei sporozoites [4]) is reported as 4 to 5 fold and the “effect on invasion by P. yoelii sporozoites” value (P. yoelii sporozoites [5]) is reported as “significantly inhibited”. For the same compound, the “CSP synthesis after incubation with inhibitor” value (P. berghei sporozoites [6]) was “not affected” and the “percentage of sporozoites that exhibited gliding motility” value (P. yoelii sporozoites [7]) was “no effect”.
